The values that follow are results of earlier work, collected in patent US20010006974A1, “COMBINATION THERAPY FOR LYMPHOPROLIFERATIVE DISEASES” (priority 1999, published 2001).

Each structure is given as a SMILES string.

The test system of data set [1] is refractory lymphomas. The note with it: monotherapy; 5 mg/m^2 for 3 consecutive day every 3 weeks.
In data set [2] the test system is refractory/relapsed B-CLL. The note with it: refractory/relapsed B-CLL patients.
The subject of data set [3] is cAMP. The note with it: correlated with theophylline-induced apoptosis.
Data set [4] relates to bcl-2. The note with it: correlated with theophylline-induced apoptosis.
The test system of data set [5] is alkylator-refractory CLL.

Regarding `OC[C@H]1O[C@@H](n2cnc3c2NC=NC[C@H]3O)C[C@@H]1O` [pentostatin, 2′-deoxycoformycin], the response rate is given as 32% in data set [1] and 30% in data set [2].

In the case of `Cn1c(=O)c2[nH]cnc2n(C)c1=O` [theophylline], the “intracellular level of cAMP” value in data set [3] was “increased”. Also, in data set [4], the bcl-2 regulation result is reported as “down-regulation”. Also, the “activity as a single agent” value in data set [5] is listed as “no activity”.
